We go through 4 molecules from US20050074451A1, “Methods and compositions for treating rheumatoid arthritis” (Elan Pharmaceuticals, Inc., priority 2003, published 2005).

Data set [1] concerns Lewis rats with adjuvant induced arthritis. Description: Adjuvant-induced arthritis (AIA) in Lewis rats: paw swelling, erythema, clinical and histological scores. It counts as in vivo, rat.
For data set [2], the system named is DBA/1 LacJ mice with collagen-induced arthritis. Description: Murine collagen-induced arthritis (ClA) model, clinical scores. It counts as in vivo, mouse. The conditions noted are these: therapeutic ClA model, 100 mg/kg b.i.d. (Table 12). The method, then: A murine collagen-induced arthritis (ClA) model was used to examine the pharmacological effect of anti-alpha4-integrin antibodies prophylactically, semi-therapeutically and therapeutically. Dosing of the antibody was begun on day 20 for the prophylactic animals. […] The results seen with the treatment of the ClA mice is seen in FIG. 1.
Peripheral blood leucocytes (PBLs) from mice treated with anti-alpha4, anti-α4β7 and anti-VCAM1 antibodies were collected at 4, 12 and 24 hours after antibody dosing. Cells were stained with goat anti-rat antibodies to confirm antibodies in circulation.
(§1) 100 DBA/1 LacJ male mice, ages 6-8 weeks were obtained from Jackson Laboratories. The mice were immunized at Day 0 as follows: 100 μg bovine type II collagen (Chondrex) in Complete Freund's adjuvant (CFA, Sigma) were injected into the mice. At Day 21, another 100 μg bovine type II collagen (Chondrex) in Incomplete Freund's Adjuvant (IFA, Sigma) was injected into the mice. Treatment with the compound began when the animals had the disease (i.e., 100% therapeutic).
The mice are scored daily after the boost. […] Treatment continued for 3-weeks-of dosing. Dosing was every other day for the antibody group and control group.
DBA/1 LacJ mice, aged 8 weeks will be immunized with bovine collagen (100 μg/mice) in CFA and re-challenge on day 21 in IFA.

A short description of data set [3]: Blood levels of compound in murine ClA model. In kind it is in vivo. The conditions noted are these: male, DBA/1 LacJ, mouse, whole blood, 100 mg/kg b.i.d., 16 hours after dosing. As to the method:
The effect of the compound of Formula P was evaluated in a therapeutica ClA model.
as §1

A short description of data set [4]: Blood/plasma levels of compound in rat ClA model (relative to receptor saturation). It counts as in vivo. The conditions noted are these: at 12 hours, all concentrations tested. The method, then:
(§2) The results in FIG. 6 show the results for compounds. There were 8 rats per group in the efficacy study. Paw swelling and erythema were measured daily and the tarsal paws collected for histological analysis at the end of the study. Plasma which was heparinized was collected at 12 hours (i.e., the trough level) and at 4 horus after the last dose for compound measurement (FIG. 6).

Data set [5] in a line: Plasma/blood compound levels in AIA rats (PK, relative to receptor saturation). The conditions noted are these: 12 hours after dosing, all concentrations tested.
A further data set has as its system rat ClA model. Put plainly: Rat ClA model, paw swelling and erythema, disease severity. It counts as in vivo. The conditions noted are these: antibody 3 mg/kg i.v., compounds 30, 10, 3 mg/kg b.i.d. As to the method: Anti alpha-4 antibodies, and the compounds of Formulae W and Y were tested in the rat ClA model according to the methods shown in Table 14 below.
as §2

For data set [6] the following is noted: rat, in vivo, 3 mg/kg.
The next data set addresses VLA-4 (Homo sapiens, UniProt P13612). The conditions noted are these: cited from earlier work.
In data set [7] the test system is human lymphocyte binding to rat brain cells. The conditions noted are these: rat brain cells stimulated with tumor necrosis factor; cited from earlier work.

Turning to `CCN(CC)c1ncc(N(CC)S(=O)(=O)c2ccc(Cl)cc2)c(NC(Cc2ccc(OC(=O)N3CCCC3)cc2)C(=O)O)n1` (stereo not drawn) [Formula P], the disease entry in data set [1] (AIA rats, all concentrations tested (30, 10, 3 mg/kg b.i.d. p.o.)) is on record as “ameliorate disease at all concentrations tested”. Moreover, in data set [2], the disease progression result was “no effect on disease progression”. This molecule also came in with a concentration at 16 h in [3] of 1000 ng/mL. For the same molecule, the “blood levels of the compound relative to receptor saturation” value in data set [4] was “above receptor saturation”. The “levels of the compound relative to receptor saturation” value in data set [5] is given as “above receptor saturation”.
`Cc1ccc(S(=O)(=O)N2CCC[C@H]2C(=O)N[C@@H](Cc2ccc(OC(=O)N3CCN(CCO)CC3)cc2)C(=O)OC(C)(C)C)cc1`: the melting point (commonly the temperature of the solid-liquid transition) was 158 to 160 °C.
On to `CC(C)OC(=O)[C@H](Cc1ccc(OC(=O)N2CCN(C)CC2)cc1)NC(=O)[C@H]1N(S(=O)(=O)c2cccnc2)CSC1(C)C` [Formula N, N-[N-(3-pyridinesulfonyl)-L-3,3-dimethyl-4-thiaprolyl]-O-[I-methylpiperazin-4-ylcarbonyl]-L-tyrosine isopropyl ester], for which, in data set [1] (AIA animal model, 30 mg/kg b.i.d.), the “clinical and histological scores” value is “ameliorate clinical and histological scores”. In addition, the disease severity result is listed as “no effect on disease severity” in [1] (AIA rats, 3 mg/kg) and “neither the compound of Formula N nor Y had any impact on disease severity” in the data set on rat ClA model. For the same molecule, the “compound present in the blood relative to receptor saturation” value in data set [6] is on record as “below receptor saturation”.

B1: mu MAb 21.6: mouse monoclonal antibody specific for the α4 subunit of VLA-4; donor immunoglobulin of the humanized antibodies (antibody, V domains shown)
VH: EVQLQQSGAELVKPGASVKLSCTASGFNIKDTYIHCVKQRPEQGLEWIGRIDPANGYTKYDPKFQGKATITADTSSNTAYLQLSSLTSEDTAVYFCAREGYYGNYGVYAMDYWGQGTSVTVSSAK
VL: DIQMTQSPSSLSASLGGKVTITCKTSQDINKYMAWYQHKPGKRPRLLIHYTSALQPGIPSRFSGSGSGRDYSFNISNLEPEDIATYYCLQYDNLWTFGGGTKLEIK
For the molecule B1, the “binding affinity for VLA-4” value with VLA-4 is listed as “about 10^9 M^−1”. The “human lymphocyte binding to tissue cultures of rat brain cells” value in [7] is listed as “inhibit”.
